# Test results published in publication PMC6240685, “Strong Inhibitory Effect, Low Cytotoxicity and High Plasma Stability of Steroidal Inhibitors of N-Methyl-D-Aspartate Receptors With C-3 Amide Structural Motif” (Frontiers in Pharmacology, 2018).
# Where a name gives a salt, the structure may show the parent alone. Read-outs that look alike come from different tables or passages of the source.
# Experiments:
# GluN1/GluN2A receptors = target: T1, GluN1/GluN2A receptors (Rattus norvegicus, UniProt P35439+Q00959); set-up: method as in Petrovic et al., 2005; conditions: ref Petrovic et al., 2005; cited from earlier work
# T1 construct: expressed in transfected cells; host or cells: HEK293
# GluN1/GluN2B receptors [1] = target: T2, GluN1/GluN2B receptors (Rattus norvegicus, UniProt P35439+Q00960); set-up: method as in Petrovic et al., 2005; conditions: ref Petrovic et al., 2005; cited from earlier work
# T2 construct: expressed in transfected cells; host or cells: HEK293
# GluN1/GluN2D receptors = target: T3, GluN1/GluN2D receptors (Rattus norvegicus, UniProt P35439+Q62645); set-up: method as in Petrovic et al., 2005; conditions: ref Petrovic et al., 2005; cited from earlier work
# T3 construct: expressed in transfected cells; host or cells: HEK293
# GluN1/GluN2B receptors [2] = target: T2, GluN1/GluN2B receptors; assay: Patch-clamp inhibition of glutamate responses of GluN1/GluN2B receptors in transfected HEK293 cells; assay type: cell-based
# HepG2 cells [3] = assay: Hepatotoxicity, XTT viability after 72 h; assay type: cell-based; conditions: Homo sapiens, read-out: Hepatotoxicity IC50, 5.5 mM glucose
# Experimental: Then, the cell viability (XTT assay) and reactive oxygen species (ROS) induction were evaluated.
# (§1) (A) Hepatotoxicity provoked by compound 4 was assessed after 72 h incubation of HepG2 cells in low glucose medium (5 mM) in the presence of compound 4 (0.25–100 μM). (B) Mitochondrial toxicity was determined after 24 h incubation of HepG2 cells in either high glucose medium (25 mM) or galactose medium (10 mM) in the presence of compound 4 (2.5–150 μM). Cell viabilities were recorded in triplicates in three independent experiments and expressed as percentage of vehicle control ± SD and IC50 values were determined by GraphPad Prism software using following equation: Y = Bottom + (Top–Bottom)/(1 + 10ˆ((LogIC50-X)^∗HillSlope)), where IC50 is the concentration of compound 4 that inhibits cell viability half way between Bottom and Top plateaus, X is compound 4 concentration and HillSlope describes the steepness of the family of curves. […] (C) Concentration-dependent effect on ROS level. HepG2 cells were treated with compound 4 (0.25–100 μM) for 72 h, and then the intracellular level of total ROS in relative fluorescence units (RFU) was detected. The data are presented as the mean ± SD for at least three independent experiments and each experiment was carried out in triplicate. Final concentration of DMSO in samples was 1%. […] Single asterisks (^∗) indicate a significant difference (P < 0.05) compared to 1% DMSO control (one-way ANOVA with Dunnett’s post-test).
# (§2) HepG2 cells (ATCC®, United Kingdom) were grown in complete Minimal Essential Medium (EMEM) (5.5 mM glucose) medium, supplemented with 10% (v/v) fetal calf serum, 200 μg/mL of streptomycin, 200 U/mL of penicillin G and 4 mM glutamine. They were cultured under a humidified atmosphere containing 5% CO2 at 37°C.
# (§3) The cytotoxicity of the tested compounds was assessed with use of XTT cell proliferation kit II (Roche Diagnostics GmbH, Mannheim, Germany) according to the manufacturer’s instructions. Briefly HepG2 cells were seeded in a 96-well plate at a density of 22,000 cells per well. After 24 h, the tested neurosteroids in a concentration range from 0.5 to 200 μM were added to the culture media and incubated for 72 h before the XTT dye was added. Mitochondrial toxicity was assessed in HepG2 cells using glucose and galactose conditioned media and XTT assay as a read out for cell viability. In brief, cells were seeded onto 96 well, clear bottom tissue culture plates at a density of 22,000 cells/well and left overnight to attach. Six hours prior to the neurosteroids treatment the media was replaced with 100 μL DMEM media containing either glucose (25 mM glucose; 1 mM pyruvate; 2 mM glutamine, 10% FBS) or galactose (10 mM galactose, 1 mM pyruvate, 6 mM glutamine, 10% FBS). After that, the tested neurosteroids in a concentration range from 0.5 to 200 μM were added in the fresh appropriate assay medium (glucose or galactose) and incubated for 24 h before the XTT dye was added. The XTT absorbance was recorded at 495 nm after 1 h incubation with the dye. Compounds were dissolved in DMSO to produce the stock solutions at the concentration of 10 mM, with exception of PAG, 1, 6 (5 mM), and 11 (2.5 mM). Results were expressed as percentages of change in viability compared to appropriate DMSO control. IC50 values were determined by GraphPad Prism version 5.00 for Windows (GraphPad Software, La Jolla, CA, United States). All experiments were done in triplicates in three independent experiments to check the reproducibility.
# GluN1/GluN2C receptors = target: T4, GluN1/GluN2C receptors (Rattus norvegicus, UniProt P35439+Q00961); set-up: method as in Petrovic et al., 2005; conditions: ref Petrovic et al., 2005; cited from earlier work
# T4 construct: expressed in transfected cells; host or cells: HEK293
# HepG2 cells [4] = assay: ROS induction (CM-H2DCFDA); assay type: cell-based
# Experimental: as §1
# The effect of neurosteroids on oxidative stress was determined using general oxidative stress indicator CM-H2DCFDA (Thermo Fisher Scientific, Waltham, MA, United States) according to the manufacturer’s instructions. Briefly HepG2 cells were seeded in a 96-well plate at a density of 13,500 cells per well. After 24 h, the tested neurosteroids were added to the culture media and incubated for 72 h. Subsequently, cells were washed with HBSS, treated with 100 μL of 1 μM CM-H2DCF-DA solution in HBSS and incubated for 1 h in the dark at 37°C. Finally, cells were washed three times with HBSS and the fluorescence was measured using 495 excitation and 527 emission in fluorescence microplate reader (Cytation 3, Winooski, VT, United States). IC50 index values were determined by GraphPad Prism version 5.00 for Windows (GraphPad Software, La Jolla, CA, United States).
# HepG2 cells [5] = assay: Mitotoxicity, XTT viability in glucose vs galactose medium; conditions: for IC50: Homo sapiens, HepG2, 24 h; for Glu/Gal index (fold change): 24 h, HepG2, index higher than 3 indicates potential mitochondrial toxicity
# Experimental: as §1, §2, §3
# [6] = set-up: method as in Rambousek et al., 2011; conditions: ref Rambousek et al., 2011, cited from earlier work
# [7] = Plasma stability, rat plasma; assay type: in vitro ADME
# [8] = Plasma stability, human plasma; assay type: in vitro ADME
# Experimental: Then, 37.8 μL of stock solution was added to 1400 μL of human plasma, maintained at 37°C. Aliquots (50 μL) withdrawn at 0, 1, 4, 8, and 24 h were analyzed by HPLC. […] The supernatant was transferred to an autosampler vial and 1 μL was injected onto LC-MS system. The samples were analyzed with an Agilent 1260 HPLC (Agilent Technologies) coupled to ESI-TOF Agilent 6530 (Agilent Technologies) with Agilent Jet Stream Technology. Samples were separated on a Waters ACQUITY UPLC CSH Phenyl-Hexyl (100 × 2.1, 130 Å, 1.7 μm) at a flow rate 0.3 ml/min. […] The mass spectrometry instrument was operated in a negative ion mode with a voltage of +3.00 kV applied to the capillary. The temperature, the flow rate of the nitrogen drying gas, the pressure of the nitrogen nebulizing gas, and the flow rate of the sheath gas were set at 325°C, 10 l/min, 40 psi, 390°C, and 11 l/min, respectively. Results are represented as a percentage of a compound remaining in spiked human plasma.
# [9] = set-up: method as in Holubova et al., 2014; conditions: ref Holubova et al., 2014; cited from earlier work
# [10] = set-up: method as in Kleteckova et al., 2014; conditions: induced by endothelin-1, immature rats; ref Kleteckova et al., 2014; cited from earlier work
# [11] = set-up: method as in Rambousek et al., 2011; conditions: after bilateral NMDA-induced lesions to the hippocampus; ref Rambousek et al., 2011; cited from earlier work
# [12] = Homo sapiens, HepG2, 72 h, read-out: ROS induction EC50
# [13] = read-out: Mitotoxicity IC50, 10 mM galactose
# [14] = read-out: Mitotoxicity IC50, 25 mM glucose
# [15] = as repeated in Table 2, read-out: IC50
# [16] = current responses to glutamate, HEK293, IC50 from single steroid dose, Hill coefficient fixed at 1.2, read-out: IC50 ± SD
# [17] = Homo sapiens, HepG2, 72 h; read-out: ROS induction EC50
# T2 sequence (Q00960 27-1482, other chains not shown): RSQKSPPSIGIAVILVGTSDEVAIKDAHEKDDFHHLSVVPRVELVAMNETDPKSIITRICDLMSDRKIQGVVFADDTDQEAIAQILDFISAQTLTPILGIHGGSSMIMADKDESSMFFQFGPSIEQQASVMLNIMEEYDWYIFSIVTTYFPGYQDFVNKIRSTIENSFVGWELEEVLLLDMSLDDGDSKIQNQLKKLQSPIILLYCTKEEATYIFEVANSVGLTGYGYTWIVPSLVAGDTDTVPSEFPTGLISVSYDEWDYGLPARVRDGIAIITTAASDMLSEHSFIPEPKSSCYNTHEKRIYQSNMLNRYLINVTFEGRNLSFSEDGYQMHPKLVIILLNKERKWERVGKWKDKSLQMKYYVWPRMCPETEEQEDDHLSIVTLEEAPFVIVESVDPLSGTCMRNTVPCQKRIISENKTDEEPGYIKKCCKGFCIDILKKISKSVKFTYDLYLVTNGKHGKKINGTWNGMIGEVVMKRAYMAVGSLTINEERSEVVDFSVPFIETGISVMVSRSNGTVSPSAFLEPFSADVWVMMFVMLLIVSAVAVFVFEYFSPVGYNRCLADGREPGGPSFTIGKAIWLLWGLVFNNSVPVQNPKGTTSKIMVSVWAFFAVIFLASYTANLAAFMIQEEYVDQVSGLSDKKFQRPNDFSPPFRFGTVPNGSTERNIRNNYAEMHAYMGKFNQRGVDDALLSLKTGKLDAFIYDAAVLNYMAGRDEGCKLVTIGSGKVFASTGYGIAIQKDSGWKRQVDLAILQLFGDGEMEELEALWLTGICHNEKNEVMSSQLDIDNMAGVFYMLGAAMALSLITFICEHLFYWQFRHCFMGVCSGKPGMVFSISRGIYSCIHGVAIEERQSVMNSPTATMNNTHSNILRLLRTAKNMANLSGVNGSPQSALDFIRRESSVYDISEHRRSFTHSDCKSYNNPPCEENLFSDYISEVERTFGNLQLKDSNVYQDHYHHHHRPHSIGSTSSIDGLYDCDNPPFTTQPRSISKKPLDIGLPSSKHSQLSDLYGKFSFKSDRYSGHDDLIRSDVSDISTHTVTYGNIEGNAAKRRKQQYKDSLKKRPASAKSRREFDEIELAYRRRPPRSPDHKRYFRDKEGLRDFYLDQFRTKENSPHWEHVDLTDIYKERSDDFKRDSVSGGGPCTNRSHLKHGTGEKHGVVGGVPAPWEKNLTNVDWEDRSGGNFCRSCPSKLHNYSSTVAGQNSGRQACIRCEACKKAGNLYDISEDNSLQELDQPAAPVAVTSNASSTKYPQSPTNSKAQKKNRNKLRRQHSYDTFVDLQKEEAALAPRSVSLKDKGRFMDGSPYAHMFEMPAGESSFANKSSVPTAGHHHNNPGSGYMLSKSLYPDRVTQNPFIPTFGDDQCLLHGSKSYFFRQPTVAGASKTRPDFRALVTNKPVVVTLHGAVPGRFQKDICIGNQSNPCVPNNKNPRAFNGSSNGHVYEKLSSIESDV
# T4 sequence (Q00961 20-1237, other chains not shown): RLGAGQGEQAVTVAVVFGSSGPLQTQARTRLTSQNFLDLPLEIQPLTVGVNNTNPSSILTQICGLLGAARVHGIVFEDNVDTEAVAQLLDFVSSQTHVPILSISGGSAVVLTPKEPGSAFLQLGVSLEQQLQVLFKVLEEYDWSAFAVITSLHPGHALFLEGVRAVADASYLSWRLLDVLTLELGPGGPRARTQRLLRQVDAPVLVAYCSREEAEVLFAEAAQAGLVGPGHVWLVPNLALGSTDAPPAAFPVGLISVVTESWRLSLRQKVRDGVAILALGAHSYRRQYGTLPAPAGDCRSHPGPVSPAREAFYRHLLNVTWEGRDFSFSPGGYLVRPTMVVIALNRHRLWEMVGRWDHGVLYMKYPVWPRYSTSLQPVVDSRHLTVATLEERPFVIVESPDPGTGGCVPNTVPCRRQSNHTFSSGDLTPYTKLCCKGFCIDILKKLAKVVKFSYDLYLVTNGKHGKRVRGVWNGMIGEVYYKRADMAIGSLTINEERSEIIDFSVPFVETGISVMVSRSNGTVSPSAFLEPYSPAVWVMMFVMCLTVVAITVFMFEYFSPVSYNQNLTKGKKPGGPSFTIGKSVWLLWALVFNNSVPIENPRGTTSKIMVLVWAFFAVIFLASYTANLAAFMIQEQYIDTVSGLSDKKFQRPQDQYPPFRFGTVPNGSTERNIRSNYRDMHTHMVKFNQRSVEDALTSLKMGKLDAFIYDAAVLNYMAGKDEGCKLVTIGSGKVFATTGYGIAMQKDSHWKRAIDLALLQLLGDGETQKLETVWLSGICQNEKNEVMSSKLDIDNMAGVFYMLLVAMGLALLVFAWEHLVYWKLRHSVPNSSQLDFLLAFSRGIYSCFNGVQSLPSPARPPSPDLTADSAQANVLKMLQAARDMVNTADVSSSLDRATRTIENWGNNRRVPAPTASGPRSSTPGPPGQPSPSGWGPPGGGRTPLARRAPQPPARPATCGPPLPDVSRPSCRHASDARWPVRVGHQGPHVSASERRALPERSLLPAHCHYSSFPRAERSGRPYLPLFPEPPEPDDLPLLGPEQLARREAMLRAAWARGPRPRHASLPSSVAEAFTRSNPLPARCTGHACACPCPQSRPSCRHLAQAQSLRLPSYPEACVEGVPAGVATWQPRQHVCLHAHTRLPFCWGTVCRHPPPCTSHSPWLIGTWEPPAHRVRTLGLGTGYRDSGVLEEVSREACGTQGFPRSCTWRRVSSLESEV
# T3 sequence (Q62645 28-1323, other chains not shown): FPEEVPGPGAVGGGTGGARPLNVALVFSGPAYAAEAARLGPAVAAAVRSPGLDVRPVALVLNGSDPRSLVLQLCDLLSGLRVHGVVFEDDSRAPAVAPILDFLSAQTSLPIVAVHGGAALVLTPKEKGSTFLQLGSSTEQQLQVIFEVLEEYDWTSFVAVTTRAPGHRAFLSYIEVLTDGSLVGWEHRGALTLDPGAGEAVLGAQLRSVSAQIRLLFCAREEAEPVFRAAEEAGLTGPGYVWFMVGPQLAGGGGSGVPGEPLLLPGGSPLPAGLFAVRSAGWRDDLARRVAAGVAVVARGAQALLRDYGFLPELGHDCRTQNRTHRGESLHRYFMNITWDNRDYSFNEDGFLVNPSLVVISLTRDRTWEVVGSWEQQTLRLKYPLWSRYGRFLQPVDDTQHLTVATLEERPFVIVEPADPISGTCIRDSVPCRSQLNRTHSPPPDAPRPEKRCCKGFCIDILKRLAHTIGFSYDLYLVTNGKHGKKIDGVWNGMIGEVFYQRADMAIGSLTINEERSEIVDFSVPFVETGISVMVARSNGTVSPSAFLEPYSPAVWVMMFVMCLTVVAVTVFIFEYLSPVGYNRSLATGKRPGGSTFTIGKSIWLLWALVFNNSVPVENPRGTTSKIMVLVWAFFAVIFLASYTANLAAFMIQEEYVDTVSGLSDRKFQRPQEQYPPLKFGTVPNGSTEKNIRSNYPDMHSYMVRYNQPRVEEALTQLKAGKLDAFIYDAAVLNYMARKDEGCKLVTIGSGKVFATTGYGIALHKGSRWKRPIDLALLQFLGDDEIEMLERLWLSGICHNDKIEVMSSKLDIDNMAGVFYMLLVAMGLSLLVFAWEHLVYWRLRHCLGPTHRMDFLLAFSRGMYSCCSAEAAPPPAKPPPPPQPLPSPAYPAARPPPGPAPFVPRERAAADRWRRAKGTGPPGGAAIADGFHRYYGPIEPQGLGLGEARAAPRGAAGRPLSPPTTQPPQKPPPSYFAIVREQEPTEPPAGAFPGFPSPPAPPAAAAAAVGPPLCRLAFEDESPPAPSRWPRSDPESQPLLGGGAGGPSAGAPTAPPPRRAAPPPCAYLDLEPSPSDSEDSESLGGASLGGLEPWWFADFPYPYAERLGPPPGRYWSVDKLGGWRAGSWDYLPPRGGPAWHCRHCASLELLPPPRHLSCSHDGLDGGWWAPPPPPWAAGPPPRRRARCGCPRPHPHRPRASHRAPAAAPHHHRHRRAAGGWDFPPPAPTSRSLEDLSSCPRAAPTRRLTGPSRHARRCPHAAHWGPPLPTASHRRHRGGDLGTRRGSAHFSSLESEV
Structure (SMILES),IC50 (GluN1/GluN2B receptors [2]) [µM],"IC50 (HepG2 cells [3]; HepG2, 72 h) [µM]",EC50 (HepG2 cells [4]; [12]) [µM],IC50 (HepG2 cells [5]; [13]) [µM],IC50 (HepG2 cells [5]; [14]) [µM],Glu/Gal index (fold change) (HepG2 cells [5]),melting point [°C],ΔGexp (GluN1/GluN2B receptors [2]) [kcal/mol],IC50 (GluN1/GluN2B receptors [2]; [15]) [µM],IC50 (GluN1/GluN2B receptors [2]; [16]) [µM],"IC50 (HepG2 cells [3]; 72 h, HepG2, 5.5 mM glucose) [µM]","remaining at 8 h, 42.1 μg/mL ([7]; rat, plasma) [%]","remaining at 8 h, 42.1 μg/mL ([8]; human, plasma) [%]",EC50 (HepG2 cells [4]; [17]) [µM],also measured
"CC(=O)[C@H]1CC[C@H]2[C@@H]3CC[C@@H]4C[C@H](OS(=O)(=O)O)CC[C@]4(C)[C@H]3CC[C@]12C [PAS, 20-oxo-5β-pregnan-3α-yl sulfate, reference compound]",24.6 ± 5.3,> 200,> 200,> 200,> 200,,,,,,,,,,IC50 (GluN1/GluN2A receptors): 50 µM; IC50 (GluN1/GluN2B receptors [1]): 44.4 µM; IC50 (GluN1/GluN2D receptors): 30.1 µM; IC50 (GluN1/GluN2C receptors): 25.6 µM
"CC(=O)C1CCC2C3CCC4CC(OC(=O)C(N)CCC(=O)O)CCC4(C)C3CCC12C (centres unmarked) [PAG, pregnanolone glutamate, reference compound]",51.7 ± 8.6,62 ± 9,80 ± 11,58 ± 7,115 ± 13,1.97,,,,,,,,,"excitotoxic damage of brain tissue and subsequent behavioral impairment ([6]; rats): reduced excitotoxic damage of brain tissue and subsequent behavioral impairment; psychotomimetic symptoms (hyperlocomotion, sensorimotor gating deficit) [6]: does not induce psychotomimetic symptoms; remaining at 8 h, 42.1 μg/mL ([7]; rat plasma, 8 h, 37°C, read-out: Plasma stability (% remaining after 8 h), Rat): 82%; remaining at 8 h, 42.1 μg/mL ([8]; human plasma, 8 h, 37°C, read-out: Plasma stability (% remaining after 8 h), Human): 94%; behaviour in elevated plus maze (EPM) and forced swimming models [9]: anxiolytic-like and antidepressant-like properties; effect in focal cerebral ischemia model [10]: neuroprotective effect; behavioral performance in active allothetic place avoidance tasks (AAPA) [11]: improved behavioral performance; neuronal damage in the dentate gyrus and subiculum [11]: significantly ameliorated neuronal damage"
"C[C@@]12CCC[C@H]1[C@@H]1CC[C@@H]3C[C@H](NC(=O)C[C@H](N)C(=O)O)CC[C@]3(C)[C@H]1CC2 [Compound 10, (S)-2-amino-4-(((3R,5R,8S,9S,10S,13S,14S)-10,13-dimethylhexadecahydro-1H-cyclopenta[a]phenanthren-3-yl)amino)-4-oxobutanoic acid]",,,,> 200,> 200,,188 to 190,-7.27,4.9,4.9 ± 1.7,> 200,100,100,> 200,
"CC(C)(C)OC(=O)N[C@H](CCC(=O)N[C@@H]1CC[C@@]2(C)[C@H](CC[C@H]3[C@@H]4CCC[C@@]4(C)CC[C@@H]32)C1)C(=O)O [Compound 11, (R)-2-((tert-butoxycarbonyl)amino)-5-(((3R,5R,8S,9S,10S,13S,14S)-10,13-dimethylhexadecahydro-1H-cyclopenta[a]phenanthren-3-yl)amino)-5-oxopentanoic acid]",,,,193 ± 17,193 ± 13,1,125 to 128,-7.49,3.4,3.4 ± 0.1,91 ± 5,100,100,103 ± 8,
